Reference: ChEMBL document CHEMBL1201862, “PubChem BioAssay data set” (2004)
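Where inhibition never reached the appropriate level, the endpoint shown equals the highest concentration tested. Otherwise, values were interpolated linearly from a five-concentration, 48-hour dose response in 96-well plates. GI50: concentration for 50% inhibition of growth.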 Active and inactive are the calls of the source. No stated cut-off is given here; in the data, active = GI50 up to about 1.1 µM and inactive = higher.

Columns and labels:
Assay in all cases: NCI-60 cell line screen, 48 h
A549 = system: A549
SK-MEL-5 = system: SK-MEL-5
MCF7 = system: MCF7
DU-145 = system: DU-145
HOP-92 = system: HOP-92
K562 = system: K562
BT-549 = system: BT-549
UACC-257 = system: UACC-257
SF-539 = system: SF-539
HOP-62 = system: HOP-62
T47D = system: T47D
OVCAR-8 = system: OVCAR-8
MOLT-4 = system: MOLT-4
NCI-H460 = system: NCI-H460
A498 = system: A498
U-251 = system: U-251
MDA-MB-435 = system: MDA-MB-435
KM12 = system: KM12
SK-MEL-2 = system: SK-MEL-2
786-0 = system: 786-0
PC-3 = system: PC-3
HCC 2998 = system: HCC 2998
OVCAR-5 = system: OVCAR-5
SK-MEL-28 = system: SK-MEL-28
SN12C = system: SN12C
NCI-H226 = system: NCI-H226
SNB-19 = system: SNB-19
NCI-H23 = system: NCI-H23
M14 = system: M14
OVCAR-3 = system: OVCAR-3
Hs-578T = system: Hs-578T
CCRF-CEM = system: CCRF-CEM
SF-295 = system: SF-295
COLO 205 = system: COLO 205
TK-10 = system: TK-10
RXF 393 = system: RXF 393
HCT-116 = system: HCT-116
NCI/ADR-RES = system: NCI/ADR-RES
Malme-3M = system: Malme-3M
UO-31 = system: UO-31
RPMI-8226 = system: RPMI-8226
ACHN = system: ACHN
EKVX = system: EKVX
HCT-15 = system: HCT-15
MDA-MB-231 = system: MDA-MB-231
CAKI-1 = system: CAKI-1
IGROV-1 = system: IGROV-1
SF-268 = system: SF-268
SK-OV-3 = system: SK-OV-3
SR = system: SR
NCI-H522 = system: NCI-H522
HT-29 = system: HT-29
OVCAR-4 = system: OVCAR-4
HL-60 = system: HL-60
LOX IMVI = system: LOX IMVI
UACC-62 = system: UACC-62
SNB-75 = system: SNB-75
SW-620 = system: SW-620

Compound: O=C(Nc1ccc(Cl)cc1)c1cc(S(=O)(=O)Nc2nnc3c(Cl)cc(C(F)(F)F)cn23)c(S)cc1Cl
- GI50 (A549): > 100 µM (inactive)
- GI50 (SK-MEL-5): 96.4 µM (inactive)
- GI50 (MCF7): > 100 µM (inactive)
- GI50 (DU-145): > 100 µM (inactive)
- GI50 (HOP-92): > 100 µM (inactive)
- GI50 (K562): > 100 µM (inactive)
- GI50 (BT-549): > 100 µM (inactive)
- GI50 (UACC-257): > 100 µM (inactive)
- GI50 (SF-539): > 100 µM (inactive)
- GI50 (HOP-62): 54.5 µM (inactive)
- GI50 (T47D): > 100 µM (inactive)
- GI50 (OVCAR-8): > 100 µM (inactive)
- GI50 (MOLT-4): 66.8 µM (inactive)
- GI50 (NCI-H460): 43.1 µM (inactive)
- GI50 (A498): 28.7 µM (inactive)
- GI50 (U-251): 56.5 µM (inactive)
- GI50 (MDA-MB-435): 49.9 µM (inactive)
- GI50 (KM12): 50.4 µM (inactive)
- GI50 (SK-MEL-2): 15 µM (inactive)
- GI50 (786-0): > 100 µM (inactive)
- GI50 (PC-3): 83 µM (inactive)
- GI50 (HCC 2998): > 100 µM (inactive)
- GI50 (OVCAR-5): > 100 µM (inactive)
- GI50 (SK-MEL-28): > 100 µM (inactive)
- GI50 (SN12C): 84.5 µM (inactive)
- GI50 (NCI-H226): > 100 µM (inactive)
- GI50 (SNB-19): 52.2 µM (inactive)
- GI50 (NCI-H23): 59.7 µM (inactive)
- GI50 (M14): > 100 µM (inactive)
- GI50 (OVCAR-3): > 100 µM (inactive)
- GI50 (Hs-578T): 46.5 µM (inactive)
- GI50 (CCRF-CEM): > 100 µM (inactive)
- GI50 (SF-295): 44.6 µM (inactive)
- GI50 (COLO 205): > 100 µM (inactive)
- GI50 (TK-10): > 100 µM (inactive)
- GI50 (RXF 393): > 100 µM (inactive)
- GI50 (HCT-116): 68.1 µM (inactive)
- GI50 (NCI/ADR-RES): > 100 µM (inactive)
- GI50 (Malme-3M): > 100 µM (inactive)
- GI50 (UO-31): > 100 µM (inactive)
- GI50 (RPMI-8226): > 100 µM (inactive)
- GI50 (ACHN): > 100 µM (inactive)
- GI50 (EKVX): > 100 µM (inactive)
- GI50 (HCT-15): > 100 µM
- GI50 (MDA-MB-231): 33.8 µM (inactive)
- GI50 (CAKI-1): > 100 µM (inactive)
- GI50 (IGROV-1): > 100 µM (inactive)
- GI50 (SF-268): 70 µM (inactive)
- GI50 (SK-OV-3): 41.9 µM (inactive)
- GI50 (SR): 29.6 µM (inactive)
- GI50 (NCI-H522): 80 µM (inactive)
- GI50 (HT-29): 51.9 µM (inactive)
- GI50 (OVCAR-4): > 100 µM (inactive)
- GI50 (HL-60): > 100 µM (inactive)

Compound: Fc1c(F)c(C(F)(F)F)c(F)c(F)c1N/N=C/c1cn(Cc2ccccc2)c2ccccc12
- GI50 (A549): 27.9 µM (inactive)
- GI50 (SK-MEL-5): 18.2 µM (inactive)
- GI50 (MCF7): 23.1 µM (inactive)
- GI50 (DU-145): 29.2 µM (inactive)
- GI50 (HOP-92): 24 µM (inactive)
- GI50 (K562): 31 µM (inactive)
- GI50 (BT-549): 30.2 µM (inactive)
- GI50 (UACC-257): 21.5 µM (inactive)
- GI50 (LOX IMVI): 22.8 µM (inactive)
- GI50 (SF-539): 20 µM (inactive)
- GI50 (HOP-62): 2.24 µM (inactive)
- GI50 (T47D): 23.6 µM (inactive)
- GI50 (OVCAR-8): 36.6 µM (inactive)
- GI50 (MOLT-4): 23.3 µM (inactive)
- GI50 (NCI-H460): 12.1 µM (inactive)
- GI50 (A498): 27.9 µM (inactive)
- GI50 (UACC-62): 22.4 µM (inactive)
- GI50 (U-251): 34 µM (inactive)
- GI50 (MDA-MB-435): 22.1 µM (inactive)
- GI50 (KM12): 20 µM (inactive)
- GI50 (SNB-75): 20 µM (inactive)
- GI50 (SK-MEL-2): 25.6 µM (inactive)
- GI50 (786-0): 23.2 µM (inactive)
- GI50 (PC-3): 27.4 µM (inactive)
- GI50 (OVCAR-5): 19.2 µM (inactive)
- GI50 (SK-MEL-28): 34.8 µM (inactive)
- GI50 (SN12C): 29.2 µM (inactive)
- GI50 (SNB-19): 30.1 µM (inactive)
- GI50 (NCI-H23): 27.5 µM (inactive)
- GI50 (M14): 18.2 µM (inactive)
- GI50 (OVCAR-3): 13.2 µM (inactive)
- GI50 (Hs-578T): 41.7 µM (inactive)
- GI50 (CCRF-CEM): 20.1 µM (inactive)
- GI50 (SF-295): 13.6 µM (inactive)
- GI50 (COLO 205): 13.5 µM (inactive)
- GI50 (TK-10): 25.2 µM (inactive)
- GI50 (RXF 393): 17.7 µM (inactive)
- GI50 (HCT-116): 23.1 µM (inactive)
- GI50 (NCI/ADR-RES): 24.7 µM (inactive)
- GI50 (Malme-3M): 30.4 µM (inactive)
- GI50 (UO-31): 23.4 µM (inactive)
- GI50 (RPMI-8226): 25.9 µM (inactive)
- GI50 (ACHN): 26.7 µM (inactive)
- GI50 (EKVX): 18.4 µM (inactive)
- GI50 (SW-620): 30.9 µM (inactive)
- GI50 (HCT-15): 25.2 µM
- GI50 (MDA-MB-231): 21 µM (inactive)
- GI50 (CAKI-1): 21.3 µM (inactive)
- GI50 (IGROV-1): 27.5 µM (inactive)
- GI50 (SF-268): 43.2 µM (inactive)
- GI50 (SK-OV-3): 12.2 µM (inactive)
- GI50 (SR): 22.9 µM (inactive)
- GI50 (NCI-H522): 23.7 µM (inactive)
- GI50 (HT-29): 18.2 µM (inactive)
- GI50 (OVCAR-4): 23.4 µM (inactive)
- GI50 (HL-60): 21.8 µM (inactive)
